Measurements published in patent publication US20250040554A1, “NEW USES OF PHENMEDIPHAM AND HERBICIDAL COMBINATIONS COMPRISING PHENMEDIPHAM” (BAYER AKTIENGESELLSCHAFT, priority 2021, published 2025).

Experiments:
Type in all cases: in vivo
[1] = tested on: non-traited soybean (Glycine max, GLXMA); experiment: Field selectivity trial soybean; conditions: 35 DAA
From the text: (§1) The respective (combinations of) materials were applied to weed plants in the greenhouse or in the field at the respective growth stage indicated hereinafter for the different weed species mentioned below. The respective (combinations of) active ingredients were also applied to corn, cotton and soybean crop plants, and the selectivity (damage) in these crop plants rated (assessed).
(§2) Visual scoring of the damage to the trial plants took place after the time mentioned in the respective Table—indicated in number of Days After Application (DAA). Damage and development of all above-ground parts of the respective plants was recorded. Visual rating was done on a percentage scale in relation to the untreated control (100%=all plants dead; 50%=green plant biomass reduced by 50%, and 0%=no discernible difference=like control plot).
(§3) The trials in the greenhouse were sprayed with an application volume of 300 L/ha with an automated track sprayer. The plots in the field were sprayed with an application volume of 140 L/ha with a hand held spray boom.
Phenmedipham and combinations of phenmedipham and mesotrione were applied at varying application rates (Dose Rate) to the crop plants of non-traited soybean (Glycine max, GLXMA) and corn (Zea mays, ZEAMX). The results are shown in Table 5 as the % damage when assessed 35 days after application (DAA), respectively.
In all the selectivity trials of Table 5 the adjuvant Mero® (rapeseed oil methyl ester) was added to the respective spray mixture in an amount corresponding to 1 L/ha for PMP, 1 L/ha for MST, and 2 L/ha for mixtures of PMP+MST.
The herbicidal effects observed for the herbicide(s) are indicated in % activity against the respective weed. The % damage (injury) indicated refers to the maximum damage observed.

[2] = tested on: PANRA=Panicum ramosum; experiment: Weed control field trial PANRA; conditions: 15 DAA
From the text: as §1, §2
(§4) wherein • A, B=respective value in percent of active ingredient A at a dose rate of a g/ha, ingredient B at a dose rate of b g/ha • E^C=Expected value according to Colby (S. R. Colby; Weeds 15 (1967), 20-22) in % at a dose rate of a+b, each in g/ha • Δ=Difference (in %) between measured value E and expected value E^C (%) (measured value minus expected value)
(§5) After the harmful plants had emerged, they were treated, at the respective growth stage indicated, with the respective materials as indicated at a water application rate of 187 L/ha.
(§6) After the treatment (15 days after the treatment), the herbicidal activity of respective material was scored visually at the same time by comparing the differently treated plots with the untreated control plots. The score figures of the different plots were averaged.
(§7) The dose rates of herbicidal ingredients used in each case are indicated for the respective active ingredient and refer to the amount of active ingredient per hectare (g/ha).
(§8) The weed control activity of different (combinations of) herbicidal active ingredients was investigated in field trials for the following weed species: • AMARE=Amaranthus retroflexus • KCHSC=Kochia scoparia • PANRA=Panicum ramosum
(§9) The growth stage of AMARE was BBCH 19, the growth stage of KCHSC was BBCH 19 and the growth stage of PANRA was BBCH 22 at the time of application of the respective material.
(§10) Phenmedipham and the respective aroylcyclohexanedione herbicide were applied at varying application rates (Dose Rate) to the different species of weed plants. The results are shown in Tables 4a to 4d as the % control when assessed 15 days after application (DAA), respectively.
(§11) In all the trials of Tables 4a to 4d Mero® (rapeseed oil methyl ester) was added to the respective spray mixture in an amount corresponding to 1 L/ha for PMP, 1 L/ha for the respective aroylcyclohexanedione herbicide, and 2 L/ha for mixtures of PMP+the respective aroylcyclohexanedione herbicide.

[3] = tested on: KCHSC=Kochia scoparia; experiment: Weed control field trial KCHSC; conditions: 15 DAA
From the text: as §1, §2, §4, §5, §6, §7, §8, §9, §10, §11

[4] = tested on: ECHCG=Echinochloa crus-galli; experiment: Greenhouse weed control trial ECHCG; conditions: 25 DAA
From the text: as §1, §2, §3
In greenhouse selectivity trials and trials herbicidal activity trials against weed plants were investigated in post-emergence application of the respective material(s).
Herbicidal activity against different weeds (undesired plants) was calculated as follows.
as §4
• measured value E is greater than E^C:->synergism (+Δ) • measured value E is equal to E^C:->additive effect • measured value E is smaller than E^C:->antagonism (−Δ)
The weed control activity of different (combinations of) materials was investigated in greenhouse trials for the following weed species: • STEME=Stellaria media • ECHCG=Echinochloa crus-galli • BROTE=Bromus tectorum
Phenmedipham amd Mesotrione were applied at varying application rates (Dose Rate) to the weed plant species STEME, ECHCG and BROTE. The results are shown in Tables 2a to 2c as the % control when assessed 25 days after application (25 DAA).
In all the trials of Table Tables 2a to 2c Mero® (rapeseed oil methyl ester) was added to the respective spray mixture in an amount corresponding to 1 L/ha for PMP, 1 L/ha for MST, and 2 L/ha for mixtures of PMP+MST.

With `CS(=O)(=O)c1ccc(C(=O)C2C(=O)CCCC2=O)c([N+](=O)[O-])c1` [MST, 2-[4-(methylsulfonyl)-2-nitrobenzoyl]cyclohexane-1,3-dione] the “maximum damage GLXMA” value ([1]; 25 g/ha) was 12%, the “maximum damage GLXMA” value ([1]; 50 g/ha) was 29% and the “% control PANRA” value ([2]; 20 g/ha) was 15%. The “% control KCHSC” value ([3]; 20 g/ha) was 40%, the “% control KCHSC” value ([3]; 40 g/ha) was 45% and the “% control KCHSC” value ([3]; 60 g/ha) was 45%. For the same molecule, the “% control KCHSC” value ([3]; 80 g/ha) was 45%, the “% control KCHSC” value ([3]; 100 g/ha) was 50% and the “% control ECHCG” value ([4]; 12.5 g/ha) was 15%. The “% control ECHCG” value ([4]; 25 g/ha) was 28%, the “% control ECHCG” value ([4]; 50 g/ha) was 70% and the “% control ECHCG” value ([4]; 75 g/ha) was 70%.
For `COC(=O)Nc1cccc(OC(=O)Nc2cccc(C)c2)c1` [PMP, 3-[(methoxyformyl)amino]phenyl (3-methylphenyl)carbamate], the “maximum damage GLXMA” value ([1]; 75 g/ha) was 10%, the “maximum damage GLXMA” value ([1]; 125 g/ha) was 15% and the “maximum damage GLXMA” value ([1]; 250 g/ha) was 14%. The “% control PANRA” value ([2]; 150 g/ha) was 0%, the “% control PANRA” value ([2]; 300 g/ha) was 5% and the “% control KCHSC” value ([3]; 150 g/ha) was 0%. The “% control KCHSC” value ([3]; 300 g/ha) was 5%, the “% control ECHCG” value ([4]; 12.5 g/ha) was 0% and the “% control ECHCG” value ([4]; 25 g/ha) was 0%. The “% control ECHCG” value ([4]; 50 g/ha) was 0%, the “% control ECHCG” value ([4]; 75 g/ha) was 0% and the “% control ECHCG” value ([4]; 100 g/ha) was 0%. The “% control ECHCG” value ([4]; 125 g/ha) was 0% and the “% control ECHCG” value ([4]; 300 g/ha) was 10%.
